Results published in patent US20180118707A1, “BETA-NAPHTHOISOFLAVONES, COMPOSITIONS CONTAINING, AND USES OF, SAME” (Thesan Pharmaceuticals, Inc., priority 2015, published 2018).

Columns and labels:
[1] = test system: CYP1A1; assay: Induction of CYP1A1 enzyme in HepG2 cells, EROD assay; format: cell-based, human; details: human, probe 7-ethoxyresorufin (8 μM)
Experimental: (§1) The formation of resorufin is quantified by fluorometry with a fluorescence plate reader. Fluorescence is determined at λex 570 nm and λem 590 nm. The amount of resorufin is calculated from a standard curve generated using 0 to 1 μM resorufin in water at ½ log dilutions. The remaining (i.e. all cells present at the beginning of analysis, since only supernatant is taken to assay EROD) live cells are subsequently utilized for the MIT cytotoxicity assay. MTT is made up in serum-free medium at 5 mg/ml. then added to the cells giving a final concentration of 10% (0.5 mg/ml MTT final) then incubated for 2 h. The medium is carefully removed, then MTT formazan is solubilized by adding 200 μl of DMSO and subsequently mixed on a plate shaker. The absorbance is measured spectra photometrically at 550 nm and background absorbance at 690 nm is subtracted. A standard curve generated using MIT formazan (dissolved in DMSO) from O—200 μM (0, 2, 5, 10, 20, 50, 100, 200 μM) is used to calculate the final experimental values which are then expressed as (wnol resarufin/mol MTT formazan) or as fold-Induction compared to solvent.

[2] = test system: HepG2 cells; assay: MTT cytotoxicity assay in HepG2 cells after EROD; format: cell-based, human
Experimental: as §1, with “subtracted.” for “subtracted. A standard curve generated using MIT formazan (dissolved in DMSO) from O—200 μM (0, 2, 5, 10, 20, 50, 100, 200 μM) is used to calculate the final experimental values which are then expressed as (wnol resarufin/mol MTT formazan) or as fold-Induction compared to solvent.”

[3] = test system: CYP1A1; assay: Induction of CYP1A1 enzyme in human cultured sebocytes, EROD assay; format: cell-based; details: cultured sebocytes, probe 7-ethoxyresorufin (8 μM)
Experimental: Cells are seeded at between 1×10^4 and 2.5×10^4 cells/well in a 96-well microtitre plate. […] 100 μl of medium is then transferred to a fresh black 96-well plate and 130 μl methanol added. The formation of resorufin is quantified by fluorometry with a fluorescence plate reader. Fluorescence is determined at λex 570 nm and λem 590 nm. The amount of resorufin is calculated from a standard curve generated using 0 to 1 μM resorufin in water at ½ log dilutions. The remaining (i.e. all cells present at the beginning of analysis, since only supernatant is taken to assay EROD) live cells are subsequently utilized for the MU cytotoxicity assay. MU is made up in serum-free medium at 5 mg/mi. then added to the cells giving a final concentration of 10% (0.5 mg/ml MIT final) then incubated for 2 h. The medium is carefully removed, then MIT formazan is solubilized by adding 200 μl of DMSO and subsequently mixed on a plate shaker. The absorbance is measured spectrophotometrically at 550 nm and background absorbance at […] is subtracted. A standard curve generated using MTT formazan (dissolved in DMSO) from O—200 μM (0, 2, 5, 10, 20, 50, 100, 200 μM) is used to calculate the final experimental values which are then expressed as (μmol resorufin/mol MTT formazan) or as fold-induction compared to solvent.

[4] = test system: human sebocyte cells; assay: MTT cytotoxicity assay in human cultured sebocytes after EROD; format: cell-based
Experimental: The essential methodology for culture and handling of human cultured sebocytes has been described in earlier examples for HEPG2 and NHK cells. Cells are seeded at between 1×10^4 and 2.5×10^4 cells/well in a 96-well microtitre plate. […] The formation of resorufin is quantified by fluorometry with a fluorescence plate reader. Fluorescence is determined at λex 570 nm and λem 590 nm. The amount of resorufin is calculated from a standard curve generated using 0 to 1 μM resorufin in water at ½ log dilutions. The remaining (i.e. all cells present at the beginning of analysis, since only supernatant is taken to assay EROD) live cells are subsequently utilized for the MU cytotoxicity assay. MU is made up in serum-free medium at 5 mg/mi. then added to the cells giving a final concentration of 10% (0.5 mg/ml MIT final) then incubated for 2 h. The medium is carefully removed, then MIT formazan is solubilized by adding 200 μl of DMSO and subsequently mixed on a plate shaker. The absorbance is measured spectrophotometrically at 550 nm and background absorbance at […] is subtracted. A standard curve generated using MTT formazan (dissolved in DMSO) from O—200 μM (0, 2, 5, 10, 20, 50, 100, 200 μM) is used to calculate the final experimental values which are then expressed as (μmol resorufin/mol MTT formazan) or as fold-induction compared to solvent.

[5] = test system: sebaceous glands; assay: Mouse ear assay for determination of sebaceous gland prevalence; format: in vivo; details: C57BL/6 mice, ears, 1% solution in DMSO:acetone 50:50 twice a day for five days, vs controls
Experimental: C57BL/6.I male mice (Harlan Models), approximately 4-5 weeks of age, body weight 20-30 g, were acclimatized (individually housed) for 5 days in a 12 hour light/dark cycle standard laboratory environment (T=20-24° C., relative humidity 30-70%, 15-20 air changes per hour) with access to water and standard rodent chow (Harlan Teklad 2014C supplied by Harlan Laboratories Models, S.L.) ad libitum. Animals were anesthetized with isoflurane and the test article (80 ul, 1% solution in DMSO:acetone 50:50) was administered to the outer surface of each of the ears of between 2 and 5 mice twice a day for five days by dermal application using a micropipette tip (a little volume of the solution was also applied on the inner side of the ears). All animals were monitored daily for reaction to the treatment, signs of illness, and behavioral changes. Body weights were recorded before the first administration and immediately prior to sacrifice. Approximately 12 to 16 hours after the final administration on day 5 the mice were sacrificed by i.p. injection of sodium pentobarbital (200 mg/kg) and the ears were collected. Each ear was sectioned into two halves. For each animal, one-half of one ear was fixed, in neutral phosphate-buffered 4% formaldehyde solution (4% formalin). This trimmed section of the ear was then processed, embedded in paraffin wax and stored at room temperature. […]

Structure (SMILES) | EC50 at 24 h [1] [nM] | Toxicity threshold [2] [µM] | EC50 at 24 h [3] [nM] | Toxicity threshold [4] [µM] | number of differentiated sebocytes [5] | number of sebaceous glands [5]
O=c1c(-c2ccccc2)coc2ccc3ccccc3c12 [Compound B] | 1000 | >30 | 50 | >30 | reduction | clear reduction
COc1ccccc1-c1coc2ccc3ccccc3c2c1=O [Compound F] | 2000 | >30 | 200 | 50 | – | –
COc1cccc(-c2coc3ccc4ccccc4c3c2=O)c1 [Compound G] | 2000 | 100 | 250 | 30 | – | –
O=c1c(-c2cccc(O)c2)coc2ccc3ccccc3c12 [Compound H] | 1500 | >100 | 250 | >30 | – | –
O=c1c(-c2ccc(O)cc2)coc2ccc3ccccc3c12 [Compound J] | 1500 | 100 | 50 | >30 | – | –
